In patent US20250282776A1, “Bicyclic TLR7 Agonists and Uses Thereof” (Bristol-Myers Squibb Company, priority 2024, published 2025):

How the values were obtained:
human TLR7 (hTLR7) = target: T1, human TLR7 (hTLR7) (Homo sapiens, UniProt Q9NYK1); assay: Human TLR7 agonist activity assay (HEK-Blue TLR7 SEAP reporter); assay type: cell-based; conditions: HEK-Blue TLR7 cells, 18 h incubation, Quanti-Blue, OD 620 nm, some values average of multiple measurements
T1 construct: host or cells: HEK-Blue TLR7 cells (engineered human embryonic kidney cells)
T1 sequence (Q9NYK1 27-1049): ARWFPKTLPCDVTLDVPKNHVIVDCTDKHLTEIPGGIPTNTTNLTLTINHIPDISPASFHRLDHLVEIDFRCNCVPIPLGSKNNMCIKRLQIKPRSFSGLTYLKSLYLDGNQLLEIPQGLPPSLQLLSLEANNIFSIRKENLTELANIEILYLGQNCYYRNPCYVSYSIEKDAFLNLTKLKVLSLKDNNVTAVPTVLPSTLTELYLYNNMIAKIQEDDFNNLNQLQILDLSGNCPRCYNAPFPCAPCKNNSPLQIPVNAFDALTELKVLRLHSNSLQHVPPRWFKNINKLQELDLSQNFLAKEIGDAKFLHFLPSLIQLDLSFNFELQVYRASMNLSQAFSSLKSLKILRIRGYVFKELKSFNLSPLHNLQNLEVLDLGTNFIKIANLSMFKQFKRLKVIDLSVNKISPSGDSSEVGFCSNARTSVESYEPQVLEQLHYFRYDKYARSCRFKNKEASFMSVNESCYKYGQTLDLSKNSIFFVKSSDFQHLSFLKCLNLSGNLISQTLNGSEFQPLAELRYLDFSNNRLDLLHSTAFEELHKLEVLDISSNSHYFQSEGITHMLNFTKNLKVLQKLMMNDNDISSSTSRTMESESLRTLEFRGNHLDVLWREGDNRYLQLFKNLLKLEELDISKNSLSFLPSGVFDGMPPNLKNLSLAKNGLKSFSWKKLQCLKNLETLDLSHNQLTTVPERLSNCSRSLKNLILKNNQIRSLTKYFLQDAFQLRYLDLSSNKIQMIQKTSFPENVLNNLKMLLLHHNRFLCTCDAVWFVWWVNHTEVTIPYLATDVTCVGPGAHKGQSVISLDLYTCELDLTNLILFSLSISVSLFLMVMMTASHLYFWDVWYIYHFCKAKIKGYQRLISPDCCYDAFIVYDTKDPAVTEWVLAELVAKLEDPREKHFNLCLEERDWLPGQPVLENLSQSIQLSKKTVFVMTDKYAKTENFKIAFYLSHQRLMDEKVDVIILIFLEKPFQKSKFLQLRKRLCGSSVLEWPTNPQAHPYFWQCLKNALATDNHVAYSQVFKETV
Procedure: (§1) This procedure describes a method for assaying human TLR7 (hTLR7) and human TLR8 (hTLR8) agonist activity of the compounds disclosed herein.
(§2) HEK-Blue™ TLR7 cells were added to each well of a 384-well tissue-culture plate (15,000 cells per well) and incubated 16-18 h at 37° C., 5% CO2. Compounds (100 nL) were dispensed into wells containing the HEK-Blue™ TLR cells and the treated cells were incubated at 37° C., 5% CO2. After 18 h, ten microliters 5 of freshly prepared Quanti-Blue™ reagent (Invivogen) was added to each well and incubated for 30 min (37° C., […]). SLAP levels were measured using an Envision plate reader (OD=620 nm). The half maximal effective concentration values (ECSO; compound concentration which induced a response halfway between the assay baseline and maximum) were calculated. Some of the reported activities were the average of multiple measurements.

human TLR8 (hTLR8) = target: T2, human TLR8 (hTLR8) (Homo sapiens, UniProt Q9NR97); assay: Human TLR8 agonist activity assay (measured in a similar manner); assay type: cell-based; conditions: HEK-Blue TLR cells, SEAP reporter, measured in a similar manner to TLR7; some values average of multiple measurements
T2 construct: expressed in transfected cells
T2 sequence (Q9NR97 27-1041): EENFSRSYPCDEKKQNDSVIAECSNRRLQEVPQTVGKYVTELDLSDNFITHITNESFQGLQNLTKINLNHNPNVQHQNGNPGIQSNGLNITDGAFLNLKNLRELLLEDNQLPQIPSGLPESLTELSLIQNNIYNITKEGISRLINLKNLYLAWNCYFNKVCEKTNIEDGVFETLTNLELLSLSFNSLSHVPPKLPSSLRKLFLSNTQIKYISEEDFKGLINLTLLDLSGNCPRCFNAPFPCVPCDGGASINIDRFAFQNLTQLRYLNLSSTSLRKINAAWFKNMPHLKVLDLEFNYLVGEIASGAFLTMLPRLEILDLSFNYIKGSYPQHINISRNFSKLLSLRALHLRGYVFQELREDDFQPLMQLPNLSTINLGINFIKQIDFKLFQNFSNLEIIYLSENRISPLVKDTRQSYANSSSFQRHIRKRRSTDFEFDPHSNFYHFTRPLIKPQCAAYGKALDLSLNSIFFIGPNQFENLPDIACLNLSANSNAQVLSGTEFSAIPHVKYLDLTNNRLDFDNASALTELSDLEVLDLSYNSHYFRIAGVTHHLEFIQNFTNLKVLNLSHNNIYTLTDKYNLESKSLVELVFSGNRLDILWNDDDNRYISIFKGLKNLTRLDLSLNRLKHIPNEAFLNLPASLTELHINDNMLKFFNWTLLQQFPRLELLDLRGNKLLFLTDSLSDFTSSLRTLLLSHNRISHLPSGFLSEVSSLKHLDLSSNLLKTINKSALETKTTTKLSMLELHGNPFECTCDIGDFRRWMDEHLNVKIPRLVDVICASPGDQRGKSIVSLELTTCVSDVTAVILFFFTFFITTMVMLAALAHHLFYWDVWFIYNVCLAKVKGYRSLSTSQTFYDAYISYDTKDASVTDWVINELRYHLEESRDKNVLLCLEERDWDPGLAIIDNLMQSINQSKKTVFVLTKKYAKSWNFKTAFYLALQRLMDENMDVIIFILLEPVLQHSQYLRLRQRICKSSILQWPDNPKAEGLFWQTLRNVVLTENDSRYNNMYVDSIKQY
Procedure: as §1
as §2, with “The half maximal effective concentration values (ECSO; compound concentration which induced a response halfway between the assay baseline and maximum) were calculated.” left out
TLR8 activity was measured in a similar manner.

Compound | EC50 (human TLR7 (hTLR7)) | EC50 (human TLR8 (hTLR8))
CCCCN(CCO)c1nc(N)nc2cn(Cc3ccc(CNCCOC)cc3OC)nc12 [Compound 10] | 1330 nM | 1450 nM
CCCCN(CCO)c1nc(N)nc2cn(Cc3ccc(CN4C[C@H]5COC[C@H]5C4)cc3OC)nc12 [Compound 11] | 732 nM | 727 nM
CCCCN(CCO)c1nc(N)nc2cn(Cc3ccc(CN4CCN(C)CC4)cc3OC)nc12 [Compound 13] | 733 nM | 1130 nM
CCCCN(CCO)c1nc(N)nc2cn(Cc3ccc(CNCC)cc3OC)nc12 [Compound 17] | 1150 nM | 745 nM
CCCCN(CCO)c1nc(N)nc2cn(Cc3ccc(CN4CCOCC4)cc3OC)nc12 [Compound 18] | 380 nM | 447 nM
CCCCN(CCO)c1nc(N)nc2cn(Cc3ccc(CN4CCN(CCO)CC4)cc3OC)nc12 [Compound 19] | 696 nM | 1470 nM
CCCCN(CCO)c1nc(N)nc2cn(Cc3ccc(CN[C@H]4C[C@H]5COC[C@H]54)cc3OC)nc12 [Compound 22] | 614 nM | 547 nM
CCCCN(CCO)c1nc(N)nc2cn(Cc3ccc(CNC[C@H]4C[C@H](O)C4)cc3OC)nc12 [Compound 23] | 1910 nM | 1900 nM
CCCCN(CCO)c1nc(N)nc2cn(Cc3ccc(CNC4CCOC4)cc3OC)nc12 (stereo not shown) [Compound 25] | 430 nM | 360 nM
CCCCN(CCO)c1nc(N)nc2cn(Cc3c(F)cc(C4CCN(CC(C)(C)O)CC4)cc3OC)nc12 [Compound 36] | 144 nM | 525 nM
CCCCN(CCO)c1nc(N)nc2cn(Cc3c(F)cc(C4CCN(C(C)C)CC4)cc3OC)nc12 [Compound 40] | 392 nM | 801 nM
CCCCCN(CCO)c1nc(N)nc2cn(Cc3ccc(CNC4CCC4)cc3OC)nc12 [Compound 44] | 825 nM | 705 nM
CCCCNCc1ccc(Cn2cc3nc(N)nc(N(CCO)CCCC)c3n2)c2ncccc12 [Compound 45] | 280 nM | 205 nM
CCCCN(CCO)c1nc(N)nc2cn(Cc3ccc(CNC4CCC4)c4cccnc34)nc12 [Compound 46, 2-((5-Amino-2-((5-((cyclobutylamino)methyl)quinolin-8-yl)methyl)-2H-pyrazolo[4,3-d]pyrimidin-7-yl)(butyl)amino)ethan-1-ol] | 326 nM | 360 nM
CCCCN(CCO)c1nc(N)nc2cn(Cc3ccc(CN4CC(CCOC)C4)c4cccnc34)nc12 [Compound 48] | 182 nM | 227 nM
CCCCN(CCO)c1nc(N)nc2cn(Cc3ccc(CN[C@H]4CCOC4)cc3OC)nc12 [Compound 52] | 1190 nM | 1070 nM

The next lines start with the values.

EC50 (human TLR7 (hTLR7)) | EC50 (human TLR8 (hTLR8)) | Compound
661 nM | 477 nM | CCCCNCc1ccc(Cn2cc3nc(N)nc(N(CCO)CCCC)c3n2)c(OC)c1 [Compound 12]
688 nM | 2510 nM | CCCCN(CCO)c1nc(N)nc2cn(Cc3c(F)cc(C4=CCNCC4)cc3OC)nc12 [Compound 15]
749 nM | 2500 nM | CCCCN(CCO)c1nc(N)nc2cn(Cc3c(F)cc(C4CCNCC4)cc3OC)nc12 [Compound 16]
1180 nM | 705 nM | CCCCN(CCO)c1nc(N)nc2cn(Cc3ccc(CN4CC(O)C4)cc3OC)nc12 [Compound 20]
587 nM | 834 nM | CCCCN(CCO)c1nc(N)nc2cn(Cc3ccc(CNC4(C)COC4)cc3OC)nc12 [Compound 21]
828 nM | 1140 nM | CCCCN(CCO)c1nc(N)nc2cn(Cc3ccc(CNC4COC4)cc3OC)nc12 [Compound 26]
1970 nM | 1950 nM | CCCCN(CCO)c1nc(N)nc2cn(Cc3ccc(CN4CC5(CC(O)C5)C4)cc3OC)nc12 [Compound 27]
284 nM | 266 nM | CCCCN(CCO)c1nc(N)nc2cn(Cc3ccc(CN4CC5(CCO5)C4)cc3OC)nc12 [Compound 28]
2500 nM | 2500 nM | CCCCN(CCO)c1nc(N)nc2cn(Cc3ccc(CNC4CC(O)C4)cc3OC)nc12 (stereo not shown) [Compound 29]
1410 nM | 1620 nM | CCCCN(CCO)c1nc(N)nc2cn(Cc3ccc(CN4CC5(C4)CN(C(C)C)C5)cc3OC)nc12 [Compound 30]
2500 nM | 1200 nM | CCCCN(CCO)c1nc(N)nc2cn(Cc3ccc(CNC(C)(C)CO)cc3OC)nc12 [Compound 32]
548 nM | 524 nM | CCCCN(CCO)c1nc(N)nc2cn(Cc3ccc(CNC(C)(C)COC)cc3OC)nc12 [Compound 33]
551 nM | 1850 nM | CCCCN(CCO)c1nc(N)nc2cn(Cc3c(F)cc(C4CCN(CCO)CC4)cc3OC)nc12 [Compound 35]
176 nM | 516 nM | CCCCN(CCO)c1nc(N)nc2cn(Cc3c(F)cc(C4CCN(C5CCOCC5)CC4)cc3OC)nc12 [Compound 37, 2-((5-amino-2-(2-fluoro-6-methoxy-4-(1-(tetrahydro-2H-pyran-4-yl)piperidin-4-yl)benzyl)-2H-pyrazolo[4,3-d]pyrimidin-7-yl)(butyl)amino)ethan-1-ol]
396 nM | 437 nM | CCCCN(CCO)c1nc(N)nc2cn(Cc3c(F)cc(C4CCN(C5CC6(CCC6)C5)CC4)cc3OC)nc12 [Compound 39]
251 nM | 858 nM | CCCCN(CCO)c1nc(N)nc2cn(Cc3c(F)cc(C4CCN(CC(N)=O)CC4)cc3OC)nc12 [Compound 41]
101 nM | 496 nM | CCCCN(CCO)c1nc(N)nc2cn(Cc3c(F)cc(C4CCN(CCS(C)(=O)=O)CC4)cc3OC)nc12 [Compound 42]
186 nM | 538 nM | CCCCN(CCO)c1nc(N)nc2cn(Cc3c(F)cc(C4CCN(C)CC4)cc3OC)nc12 [Compound 47]
374 nM | 949 nM | CCCCN(c1nc(N)nc2cn(Cc3ccc(CN4CCCCC4)cc3OC)nc12)C(C)CO (stereo not shown) [Compound 50]
